From patent US12503455B2, “Nucleic acid-binding photoprobes and uses thereof” (Arrakis Therapeutics, Inc., priority 2017, dated 2025) come the findings set out here.

Common to all, as to type: binding
Test [1] deals with Aptamer 21. In words: Capture of Aptamer 21 with click-biotinylated probes. To be noted: Aptamer 21 or Aptamer 21-E. The method, then:
A 50 μL sample of 1 μM folded Aptamer 21 or Aptamer 21-E solution in folding buffer (20 mM TrisHCl pH 8, 100 mM KCl, 3 mM MgCl2) was added to a 0.5 μL aliquot of 0.5 mM ARK-729, ARK-2058, ARK-816, or ARK-2059 in DMSO or a DMSO-only control. The solution was incubated at 37° C. for 1 h and then irradiated with long wave UV light (˜365 nm) for 30 min in a UV crosslinker (Fisher Scientific). To this solution was added 0.5 μL of 10 mM DBCO-biotin (Click Chemistry Tools, cat. #A105) and 2 μL of 0.5 M EDTA pH 8 and then the solution was incubated at 65° C. for 2 h. The RNA was ethanol precipitated by adding 35 μL of water, 2 uL of 5 mg/mL glycogen, 10 μL 3 M NaOAc pH 5, and 250 μL ethanol, incubating at −80° C. for 1 h, centrifuging at 20000×g for 30 min, washing the pellet twice with 500 μL of 70% ethanol, and then air drying the pellet.
The RNA pellet was redissolved in 50 μL of 1× bind/wash buffer (20 mM TrisHCl pH 7, 100 mM KCl, 0.1% Tween-20). A 50 μL aliquot of MyOne Streptavidin C1 Dynabead slurry (Thermo) was captured on a magnet, washed twice with 50 μL of 1× bind/wash buffer, and then resuspended in 50 μL of the crosslinked RNA sample. The bead suspension was rotated at room temperature for 30 min and then washed twice with 100 μL of 1× bind/wash solution. […]

The subject of a further test is Aptamer 21-E. In words: Photo-crosslinking of ARK-547 with negative control Aptamer 21-E. As to the method:
A 9.5 μL sample of folded RNA (2.6 μM) in buffer (20 mM TrisHCl pH 8, 100 mM KCl, 3 mM MgCl2) was added to a 0.5 μL aliquot of 1 mM ARK-547 in DMSO. The reaction was incubated for 10 min at 37° C., irradiated with long wave UV light (˜365 nm) for 30 min in a UV crosslinker (Fisher Scientific), and then kept on ice.
The samples of cross-linked RNA were diluted to a final volume of 20 μL and final reaction conditions of 1×T4 RNA ligase buffer (New England Biolabs), 5 U/μL T4 RNA ligase 2, truncated KQ (New England Biolabs), 16.5% PEG-8000, and 0.5 μM universal miRNA cloning linker (New England Biolabs). The reaction was incubated in a thermal cycler for 2.5 h cycling between 5 min at 16° C. and 3 min at 25° C. The RNA was then purified using Agencourt AMPure XP beads (Beckman Coulter) using the standard protocol from the manufacturer. […]
To remove excess primer, the sample was mixed with 4.5 μL of ExoSAP-IT, incubated at 37° C. for 15 min, and then quenched with 1 μL of 0.5 M EDTA pH 8. […] The concentration was determined by absorbance at 260 nm. […]
The concentrations of different PCR products were measured using the Denovix dsDNA fluorescence quantitation kit (Denovix) and multiplexed at equal concentrations with a 20% PhiX spike-in. Sequencing was performed on an Illumina MiSeq with 150 bp paired-end reads using the standard manufacturer protocol.

The subject of test [2] is Aptamer 21. Briefly: Reverse transcriptase pausing (drop-off) gel assay of photo-crosslinking to Aptamer 21. The method, then: A solution of RNA at 2 to 5 μM in nuclease-free water was heated to 95° C. for 3 min and then cooled on ice for 2 min. This solution was diluted with ½ volume of 3×RNA folding buffer (60 mM TrisHCl pH 8, 300 mM KCl, 9 mM MgCl2) and incubated at 37° C. for 20 min. Folding was carried out immediately before use of the RNA in each experiment. In cases where a mixture of RNA molecules was used in vitro the RNAs were folded separately and then combined prior to the probing experiment.
Folded RNA (1 μM) was incubated with the photoaffinity probe (10 μM) in total 25 μL of buffer (20 mM TrisHCl pH 8, 100 mM KCl, 3 mM MgCl2) with 2.5% DMSO for 30 min at 37° C. to allow binding to come to equilibrium. The sample was then irradiated with long wave UV light (˜365 nm) for 30 min in a UV crosslinker (Fisher Scientific).
A 3.75 μL aliquot of 10 μM reverse transcription primer was added to the cross-linked RNA sample, which was then incubated for 5 min at 65° C. and then cooled on ice. The sample was then diluted to a final volume of 60 μL and final buffer concentration of 1× Protoscript-II buffer (New England Biolabs), 0.5 mM dNTPs, 10 mM DTT, 0.4 U/μL RNase Inhibitor (New England Biolabs), and 10 U/μL Protoscript-II (New England Biolabs). The reaction was incubated at 45° C. for 2 h, 65° C. for 20 min, and then 4° C.
The RNA was hydrolyzed by the addition of 4.8 μL of 2.5 M NaOH and heating at 95° C. for 5 min. The reaction was quenched by the addition of 0.9 μL of acetic acid. The cDNA was precipitated by the addition of 6.6 μL of 3 M sodium acetate pH 5 and 181 μL ethanol, cooling to −80° C. for 1 h, and then centrifuging at 20,500×g at 4° C. for 30 min. The cDNA pellet was washed twice with 500 μL of 70% ethanol and then air dried for 5 min.
The cDNA pellet was resuspended in 12 μL of 1×TBE-urea sample loading buffer (Bio-Rad) and heated to 95° C. for 5 min. The sample was then run on a pre-cast 8.6×6.7 cm TBE-urea 10% PAGE gel (Bio-Rad) at 120 V until the lower bromophenol blue dye reached the bottom of the gel. The gel was stained with 1×SYBR-gold (Invitrogen) in 1×TBE buffer at room temperature for 20 min covered from light. The gel fluorescence was imaged on an Azure c600 instrument.

Test [3] deals with Aptamer 21. In words: LC-MS analysis of cross-linked RNA. As to the method: Folded RNA (1.33 μM) was incubated with or without the photoaffinity probe (20 μM) in total 100 μL of buffer (20 mM TrisHCl pH 8, 100 mM KCl, 3 mM MgCl2) with 2% DMSO for 30 min at 37° C. to allow binding to come to equilibrium. The sample was then irradiated with long wave UV light (˜365 nm) for 30 min in a UV crosslinker (Fisher Scientific).
The RNA was then precipitated by adding 10 μL of 3 M sodium acetate pH 5 and 275 μL ethanol, cooling to −80° C. for 1 h, and then centrifuging at 20,500×g at 4° C. for 30 min. The RNA pellet was washed with 500 μL of 70% ethanol, air dried for 5 min, and then resuspended in 120 μL of water.
50 μL of RNA sample was injected onto Clarity 2.6 μm Oligo X-T column (50*2.1 mm, 60° C.), and the gradient and flowrate were as follows: 95% A/5% B to 75% A/25% B over 5 min, flowrate: 400 μL/min; 75% A/25% B to 30% A/70% B over 1 min, flowrate: 400 μL/min; 100% D over 1 min, flowrate: 500 μL/min; 95% A/5% B over 2 min, flowrate: 500 μL/min (A: 1% HFIPA (hexafluoroisopropyl alcohol), 0.1% DIEA (diisopropylethylamine), 1 μM EDTA (ethylenediamine tetraacetic acid) in H2O; B: 0.075% HFIPA, 0.0375% DIEA, 1 μM EDTA in 65/35 MeCN/H2O; D: 40/40/20% MeOH/MeCN/H2O); The LCMS instrument was a Thermo Finnigan LTQ, and ProMass deconvolution software coupled with Xcaliber were used for all data processing.

For the molecule `COC(=O)C1=C(COCc2cn(CCOCCOCCNC(=O)c3cc(CN=[N+]=[N-])cc(N=[N+]=[N-])c3)nn2)NC(c2ccncc2)=NC1c1ccc(F)cc1Cl` (stereo not drawn) [ARK-729], the “RT pausing peaks after click-biotinylation and avidin bead enrichment” value in the test on Aptamer 21 [1] was “RT pausing peaks specific to Aptamer 21”.
With `COC(=O)C1=C(COCc2cn(CCOCCOCCNC(=O)CCC3(C)N=N3)nn2)NC(c2ccncc2)=NC1c1ccc(F)cc1Cl` (stereo not drawn) [ARK-547], in the test with Aptamer 21-E, the “binding to negative control Aptamer 21-E” value was “does not bind” and the “photoadduct with Aptamer 21-E” value is reported as “no photoadduct”. Moreover, in the test with Aptamer 21 [2] (1 uM RNA, 10 uM probe (9 uM PreQ1 probe), UV ~360 nm), the “cross-linking with Apt21 RNA (RT pausing)” value was “specific and UV-dependent cross-linking”. Further, in the test with Aptamer 21 [2] (FIG. 52), the “shortened sequences produced in PEARL-seq reverse transcriptase pausing gel assay” value is listed as “shortened sequences of particular lengths”. In the test with Aptamer 21 [3], the “covalent modification of the RNA by LC-MS” value is reported as 5%.
